Laboratory results from US20230114728A1 (Venatorx Pharmaceuticals, Inc., priority 2019, published 2023).
Values after ≈ are worked out from the molar mass of the structure shown.

Assays:
[1] = molecular target: T1, E. coli K12 PBP3 (Escherichia coli, UniProt P0AD68); assay: biochemical; assay type: binding
T1 construct: made in house
In short: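 Fluorescence polarization (ex 490/em 520 nm) competition of inhibitors against Bocillin-FL at 0.1 μM, read up to 60 min. Final PBP levels: E. coli PBP3 1.5 μM; A. baumannii PBP2 2.5 μM, PBP3 0.2 μM in Tris pH 8.0/NaCl/glycerol/Tween 20; N. gonorrhoeae PBP2 […] in Hepes pH 8.0/NaCl/glycerol. EC50 = concentration halving PBP-bound Bocillin-FL.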

[2] = test system: N. gonorrhoeae ATCC 49226; assay: Liquid broth MIC in Fastidious broth; assay type: cell-based; details: Neisseria gonorrhoeae, ATCC49226; N. gonorrhoeae strain ATCC 49226; Fastidious broth; read-out: Minimum Inhibitory Concentration, N. gonorrhoeae ATCC 49226
In short: (§1)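 Colonies were swabbed from chocolate agar after 24 h growth and standardised by optical density at 600 nm. Compounds were serially diluted twofold in Fastidious broth, and bacteria added to give 5×10^5 CFU/mL. After about 24 h at 36 °C in 5% CO2, the lowest concentration allowing under 10% growth was taken as MIC.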

[3] = test system: N. gonorrhoeae FA1090; assay: Liquid broth MIC in Fastidious broth; assay type: cell-based; details: Neisseria gonorrhoeae; N. gonorrhoeae strain FA1090; Fastidious broth; read-out: Minimum Inhibitory Concentration, N. gonorrhoeae FA1090
In short: as §1

[4] = test system: N. gonorrhoeae H041; assay: Liquid broth MIC in Fastidious broth; assay type: cell-based; details: Neisseria gonorrhoeae, H041, read-out: Minimum Inhibitory Concentration, N. gonorrhoeae H041
In short: (§2)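 Broth microdilution against gonococcal strains expressing mosaic PBP2, starting inoculum 5×10^5 CFU/mL in Fastidious broth. Incubation runs ~24 h at 36 °C under 5% CO2, with MIC scored visually at <10% of full growth.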

[5] = test system: N. gonorrhoeae WHO G; assay: Liquid broth MIC in Fastidious broth; assay type: cell-based; details: Neisseria gonorrhoeae; N. gonorrhoeae strain WHO G; Fastidious broth; read-out: Minimum Inhibitory Concentration, N. gonorrhoeae WHO G
In short: as §1

[6] = test system: N. gonorrhoeae WHO K; assay: Liquid broth MIC in Fastidious broth; assay type: cell-based; details: Neisseria gonorrhoeae, read-out: Minimum Inhibitory Concentration, N. gonorrhoeae WHO K
In short: as §2

[7] = test system: N. gonorrhoeae WHO L; assay: Liquid broth MIC in Fastidious broth; assay type: cell-based; details: Neisseria gonorrhoeae; N. gonorrhoeae strain WHO L; Fastidious broth; read-out: Minimum Inhibitory Concentration, N. gonorrhoeae WHO L
In short: as §1

[8] = test system: N. gonorrhoeae WHO Q; assay: Liquid broth MIC in Fastidious broth; assay type: cell-based; details: Neisseria gonorrhoeae, read-out: Minimum Inhibitory Concentration, N. gonorrhoeae WHO Q
In short: as §2

[9] = test system: N. gonorrhoeae WHO Z; assay: Liquid broth MIC in Fastidious broth; assay type: cell-based; details: Neisseria gonorrhoeae, read-out: Minimum Inhibitory Concentration, N. gonorrhoeae WHO Z
In short: as §2

T1 sequence (P0AD68 1-577): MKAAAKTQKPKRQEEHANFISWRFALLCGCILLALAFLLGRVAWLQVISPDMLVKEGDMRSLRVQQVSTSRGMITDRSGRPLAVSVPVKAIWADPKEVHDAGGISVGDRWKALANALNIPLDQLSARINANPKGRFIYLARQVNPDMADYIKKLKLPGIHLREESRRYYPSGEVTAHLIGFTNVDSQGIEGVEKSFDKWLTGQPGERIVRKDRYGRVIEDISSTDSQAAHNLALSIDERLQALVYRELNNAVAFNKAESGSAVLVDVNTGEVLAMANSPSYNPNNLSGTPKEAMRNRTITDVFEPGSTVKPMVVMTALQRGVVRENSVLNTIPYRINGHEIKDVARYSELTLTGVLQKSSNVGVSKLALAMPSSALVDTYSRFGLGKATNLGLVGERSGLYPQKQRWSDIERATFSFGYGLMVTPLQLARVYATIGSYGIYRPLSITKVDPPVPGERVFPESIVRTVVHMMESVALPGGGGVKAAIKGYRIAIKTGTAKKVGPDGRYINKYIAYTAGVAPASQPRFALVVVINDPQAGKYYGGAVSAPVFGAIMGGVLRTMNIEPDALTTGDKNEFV

Row | Compound | EC50 [1] | MIC [2] | MIC [3] | MIC [4] | MIC [5] | MIC [6] | MIC [7] | MIC [8] | MIC [9]
1 | NCCN1CCN(C(=O)N[C@H](C(=O)N[C@H]2Cc3cccc(C(=O)O)c3OB2O)c2cc(F)c(O)c(F)c2)C(=O)C1=O (single isomer, unassigned) [Example 158] | 30 to 500 µM | > 64 µg/mL | 4 to 8 µg/mL (≈ 6.95 to 13.9 µM) | > 64 µg/mL | 16 to 32 µg/mL (≈ 27.8 to 55.6 µM) | > 64 µg/mL | > 64 µg/mL | > 64 µg/mL | > 64 µg/mL
2 | NCCN1CCN(C(=O)N[C@@H](C(=O)N[C@H]2Cc3cccc(C(=O)O)c3OB2O)c2cc(F)c(O)c(F)c2)C(=O)C1=O (single isomer, unassigned) [Example 159] | < 30 µM | 16 to 32 µg/mL (≈ 27.8 to 55.6 µM) | 1 to 2 µg/mL (≈ 1.74 to 3.48 µM) | > 64 µg/mL | 4 to 8 µg/mL (≈ 6.95 to 13.9 µM) | > 64 µg/mL | > 64 µg/mL | > 64 µg/mL | > 64 µg/mL
3 | NCCN1CCN(C(=O)N[C@H](C(=O)N[C@H]2Cc3cccc(C(=O)O)c3OB2O)c2cc(Cl)c(O)c(Cl)c2)C(=O)C1=O (single isomer, unassigned) [Example 165] | 30 to 500 µM | > 64 µg/mL | 4 to 8 µg/mL (≈ 6.58 to 13.2 µM) | > 64 µg/mL | > 64 µg/mL | > 64 µg/mL | > 64 µg/mL | > 64 µg/mL | > 64 µg/mL
4 | NCCN1CCN(C(=O)N[C@@H](C(=O)N[C@H]2Cc3cccc(C(=O)O)c3OB2O)c2cc(Cl)c(O)c(Cl)c2)C(=O)C1=O (single isomer, unassigned) [Example 166] | < 30 µM | 16 to 32 µg/mL (≈ 26.3 to 52.6 µM) | 0.25 to 0.5 µg/mL (≈ 0.411 to 0.822 µM) | > 64 µg/mL | 4 to 8 µg/mL (≈ 6.58 to 13.2 µM) | > 64 µg/mL | > 64 µg/mL | 16 to 32 µg/mL (≈ 26.3 to 52.6 µM) | 16 to 32 µg/mL (≈ 26.3 to 52.6 µM)
5 | NCCN1CCN(C(=O)N[C@H](C(=O)N[C@H]2Cc3cccc(C(=O)O)c3OB2O)c2cc(F)c(O)c(F)c2F)C(=O)C1=O (single isomer, unassigned) [Example 167] | 30 to 500 µM | 16 to 32 µg/mL (≈ 27 to 53.9 µM) | 1 to 2 µg/mL (≈ 1.69 to 3.37 µM) | > 64 µg/mL | 16 to 32 µg/mL (≈ 27 to 53.9 µM) | > 64 µg/mL | > 64 µg/mL | > 64 µg/mL | > 64 µg/mL
6 | NCCN1CCN(C(=O)N[C@@H](C(=O)N[C@H]2Cc3cccc(C(=O)O)c3OB2O)c2cc(F)c(O)c(F)c2F)C(=O)C1=O (single isomer, unassigned) [Example 168] | < 30 µM | 4 to 8 µg/mL (≈ 6.74 to 13.5 µM) | 0.25 to 0.5 µg/mL (≈ 0.421 to 0.843 µM) | > 64 µg/mL | 1 to 2 µg/mL (≈ 1.69 to 3.37 µM) | 16 to 32 µg/mL (≈ 27 to 53.9 µM) | 16 to 32 µg/mL (≈ 27 to 53.9 µM) | 16 to 32 µg/mL (≈ 27 to 53.9 µM) | 16 to 32 µg/mL (≈ 27 to 53.9 µM)
7 | NCCN1CCN(C(=O)N[C@H](C(=O)N[C@H]2Cc3cccc(C(=O)O)c3OB2O)c2ccc(O)c(F)c2F)C(=O)C1=O (single isomer, unassigned) [Example 169] | 30 to 500 µM | > 64 µg/mL | 4 to 8 µg/mL (≈ 6.95 to 13.9 µM) | > 64 µg/mL | > 64 µg/mL | > 64 µg/mL | > 64 µg/mL | > 64 µg/mL | > 64 µg/mL
8 | NCCN1CCN(C(=O)N[C@@H](C(=O)N[C@H]2Cc3cccc(C(=O)O)c3OB2O)c2ccc(O)c(F)c2F)C(=O)C1=O (single isomer, unassigned) [Example 170] | < 30 µM | 4 to 8 µg/mL (≈ 6.95 to 13.9 µM) | 0.25 to 0.5 µg/mL (≈ 0.435 to 0.869 µM) | > 64 µg/mL | 4 to 8 µg/mL (≈ 6.95 to 13.9 µM) | > 64 µg/mL | > 64 µg/mL | > 64 µg/mL | > 64 µg/mL
9 | NCCN1CCN(C(=O)N[C@@H](C(=O)N[C@H]2Cc3ccc(F)c(C(=O)O)c3OB2O)c2cc(F)c(O)c(O)c2Cl)C(=O)C1=O (single isomer, unassigned) [Example 179] | < 30 µM | > 64 µg/mL | 16 to 32 µg/mL (≈ 25.6 to 51.1 µM) | > 64 µg/mL | 16 to 32 µg/mL (≈ 25.6 to 51.1 µM) | > 64 µg/mL | > 64 µg/mL | > 64 µg/mL | > 64 µg/mL
10 | NCCCN1CCN(C(=O)N[C@@H](C(=O)N[C@H]2Cc3ccc(F)c(C(=O)O)c3OB2O)c2cc(F)c(O)c(O)c2Cl)C(=O)C1=O (single isomer, unassigned) [Example 180] | < 30 µM | 16 to 32 µg/mL (≈ 25 to 50 µM) | 4 to 8 µg/mL (≈ 6.25 to 12.5 µM) | > 64 µg/mL | 16 to 32 µg/mL (≈ 25 to 50 µM) | > 64 µg/mL | > 64 µg/mL | > 64 µg/mL | > 64 µg/mL
11 | NS(=O)(=O)c1cccc(C(NC(=O)N2CCN(CCF)C(=O)C2=O)C(=O)N[C@H]2Cc3cccc(C(=O)O)c3OB2O)c1 (stereo partly drawn) [Example 100, (3R)-3-(2-(4-(2-fluoroethyl)-2,3-dioxopiperazine-1-carboxamido)-2-(3-sulfamoylphenyl)acetamido)-2-hydroxy-3,4-dihydro-2H-benzo[e][1,2]oxaborinine-8-carboxylic acid] | 30 to 500 µM | 16 to 32 µg/mL (≈ 26.4 to 52.9 µM) | 0.25 to 0.5 µg/mL (≈ 0.413 to 0.826 µM) | 16 to 32 µg/mL (≈ 26.4 to 52.9 µM) | 1 to 2 µg/mL (≈ 1.65 to 3.3 µM) | 16 to 32 µg/mL (≈ 26.4 to 52.9 µM) | > 64 µg/mL | 16 to 32 µg/mL (≈ 26.4 to 52.9 µM) | 16 to 32 µg/mL (≈ 26.4 to 52.9 µM)
12 | CCN1CCN(C(=O)NC(C(=O)N[C@H]2Cc3cccc(C(=O)O)c3OB2O)c2cc(Cl)c(O)cc2F)C(=O)C1=O (stereo partly drawn) [Example 101, (3R)-3-(2-(5-chloro-2-fluoro-4-hydroxyphenyl)-2-(4-ethyl-2,3-dioxopiperazine-1-carboxamido)acetamido)-2-hydroxy-3,4-dihydro-2H-benzo[e][1,2]oxaborinine-8-carboxylic acid] | < 30 µM | 4 to 8 µg/mL (≈ 6.94 to 13.9 µM) | 0.25 to 0.5 µg/mL (≈ 0.433 to 0.867 µM) | 16 to 32 µg/mL (≈ 27.7 to 55.5 µM) | 1 to 2 µg/mL (≈ 1.73 to 3.47 µM) | 16 to 32 µg/mL (≈ 27.7 to 55.5 µM) | 16 to 32 µg/mL (≈ 27.7 to 55.5 µM) | 16 to 32 µg/mL (≈ 27.7 to 55.5 µM) | 16 to 32 µg/mL (≈ 27.7 to 55.5 µM)
13 | C[C@@H](O)[C@@H](NC(=O)N1CCN(CCNC(=O)c2c(F)cc(O)c(O)c2Cl)C(=O)C1=O)C(=O)N[C@H]1Cc2ccc(F)c(C(=O)O)c2OB1O [Example 102, (R)-3-((2R,3R)-2-(4-(2-(2-chloro-6-fluoro-3,4-dihydroxybenzamido)ethyl)-2,3-dioxopiperazine-1-carboxamido)-3-hydroxybutanamido)-7-fluoro-2-hydroxy-3,4-dihydro-2H-benzo[e][1,2]oxaborinine-8-carboxylic acid] | 30 to 500 µM | > 64 µg/mL | 16 to 32 µg/mL (≈ 22.9 to 45.9 µM) | > 64 µg/mL | 16 to 32 µg/mL (≈ 22.9 to 45.9 µM) | > 64 µg/mL | > 64 µg/mL | > 64 µg/mL | > 64 µg/mL
14 | CCN1CCN(C(=O)NC(C(=O)N[C@H]2Cc3cccc(C(=O)O)c3OB2O)c2cc(F)c(O)cc2Cl)C(=O)C1=O (stereo partly drawn) [Example 103, (3R)-3-(2-(2-chloro-5-fluoro-4-hydroxyphenyl)-2-(4-ethyl-2,3-dioxopiperazine-1-carboxamido)acetamido)-2-hydroxy-3,4-dihydro-2H-benzo[e][1,2]oxaborinine-8-carboxylic acid] | < 30 µM | 16 to 32 µg/mL (≈ 27.7 to 55.5 µM) | 0.25 to 0.5 µg/mL (≈ 0.433 to 0.867 µM) | 16 to 32 µg/mL (≈ 27.7 to 55.5 µM) | 1 to 2 µg/mL (≈ 1.73 to 3.47 µM) | 16 to 32 µg/mL (≈ 27.7 to 55.5 µM) | > 64 µg/mL | 16 to 32 µg/mL (≈ 27.7 to 55.5 µM) | 16 to 32 µg/mL (≈ 27.7 to 55.5 µM)
